Test results taken from patent US20080262021A1, “1H-Imidazoquinoline Derivatives as Prote In Kinase Inhibitors” (NOVARTIS AG, priority 2003, published 2008).

Assays:
ALK = biological target: T1, ALK (Homo sapiens, UniProt Q9UM73); experiment: ALK tyrosine kinase inhibition (GST-ALK filter binding assay); type: biochemical; conditions: for IC50: read-out: IC50 Range Class, inhibition of ALK
T1 construct: using the recombinant kinase domain of the ALK in analogy to the VEGF-R kinase assay
Procedure: See Wood et al., Cancer Res, Vol. 60, No. 8, pp. 2178-2189 (2000). In vitro enzyme assays using GST-ALK protein tyrosine kinase are performed in 96-well plates as a filter binding assay in 20 mM tris-HCl, pH=7.5, 3 mM MgCl2, 10 mM MnCl2, 1 mM DTT, 0.1 μCi/assay (=30 μL) [γ-^33P]-ATP, 2 μM ATP, 3 μg/mL poly (Glu, Tyr 4:1) Poly-EY (Sigma P-0275), 1% DMSO, 25 ng ALK enzyme. Assays are incubated for 10 minutes at ambient temperature. Reactions are terminated by adding 50 μL of 125 mM EDTA, and the reaction mixture is transferred onto a MAIP Multiscreen plate (Millipore, Bedford, Mass., USA), previously wet with methanol, and re-hydrated for 5 minutes with H2O. Following washing (0.5% H3PO4), plates are counted in a liquid scintillation counter. IC50 values are calculated by linear regression analysis of the percentage inhibition. Compared with the control without inhibitor, the compounds of formula (I) inhibit the enzyme activity by 50% (IC50), e.g., in a concentration of from 0.001-0.5 μM, especially from […].

S6K1 = biological target: T2, S6K1 (Homo sapiens, UniProt P23443, T412E); experiment: S6K1 kinase inhibition (S6K1ΔCT/T412E, TR-FRET); type: biochemical; conditions: read-out: IC50 Range Class, inhibition of S6K1
T2 construct: His (N); made in house; host or cells: Sf9 insect cells (baculovirus, pFastBacHT A), co-infected with GST-PDK1 virus
T2 sequence (P23443 1-421 T412E): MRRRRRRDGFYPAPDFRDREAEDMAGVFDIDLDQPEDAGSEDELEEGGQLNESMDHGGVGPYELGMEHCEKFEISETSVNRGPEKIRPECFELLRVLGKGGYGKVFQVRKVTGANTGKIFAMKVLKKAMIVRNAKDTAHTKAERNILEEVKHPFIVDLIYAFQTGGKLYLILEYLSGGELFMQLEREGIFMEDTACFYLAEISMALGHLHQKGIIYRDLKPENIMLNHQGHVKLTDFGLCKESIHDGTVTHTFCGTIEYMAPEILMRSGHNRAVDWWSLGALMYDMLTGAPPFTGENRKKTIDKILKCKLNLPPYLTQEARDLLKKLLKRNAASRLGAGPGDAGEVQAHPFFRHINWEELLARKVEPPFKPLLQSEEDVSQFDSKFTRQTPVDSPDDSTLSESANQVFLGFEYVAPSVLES
Description: The DNA fragment encoding S6K1ΔCT/T412E is subcloned to the baculovirus donor vector pFastBacHT A to generate a recombinant baculovirus that expresses S6K1ΔCT/T412E. Transfer vectors for S6K1ΔCT/T412E are transfected into the DH10Bac cell line (GIBCO). After selection of white colonies, they are used for viral DNA (bacmid) preparation. Sf9 cells (American Type Culture Collection) cells are then transfected with the viral DNA using Cellfectin reagent. Virus-containing media is collected from the transfected cell culture and is used for infection to increase its titer. For large-scale protein expression, Sf9 cells are co-infected with S6K1ΔCT/T412E and GST-PDK1 virus-containing media with MOI of 2.25 and 1, respectively. After 3 days, the cells expressing the recombinant enzyme are resuspended in the culture medium with a sterilized cell scraper and harvested by centrifugation. The cells are resuspended in 5 volumes of cell pellet of Extraction Buffer (50 mM MOPS pH 7.0, containing 300 mM NaCl, 0.05% Tween-20, 10 mM sodium pyrophosphate, 50 mM β-glycerophosphate, 0.2 mM cantharidic acid and 1× complete-EDTA protease inhibitor cocktail) and then disrupted with 15 strokes of a Dounce homogenizer followed by sonication on ice. The homogenate is centrifuged at 4° C. for 60 minutes at 48,000×g. The supernatant is clarified with a 5 μm filter and subjected to purification with TALON Superflow Resin (Clontech). First, 1 mL of TALON resin per 5 mL of the supernatant was equilibrated with the Extraction Buffer and resuspended in the supernatant followed by gentle agitation for 20 minutes at RT. After centrifugation at 700×g for 5 minutes, supernatant is removed. The resin is washed twice by adding 10 bed volumes of the Extraction Buffer, agitating for 10 minutes at RT, centrifugating at 700×g for 5 minutes, and discarding the supernatant. The resin is then resuspended with the same volume of the Extraction Buffer and transferred to an disposable chromatography column. The packed column is washed once with 10 bed volumes of the Extraction Buffer and additionally with the same volume of Wash Buffer (5 mM imidazole in the Extraction Buffer). Then, the His-tagged S6K1ΔCT/T412E is eluted with four bed volumes of Elution Buffer (150 mM imidazole in the Extraction Buffer).
Measure of enzyme activity: The kinase assay with purified S6K1ΔCT/T412E is performed with TR-FRET (Time-Resolved Fluorescene Resonance Energy Transfer) technology. First, ATP-dependent phosphorylation of the biotinylated substrate peptide corresponding to residues 229-242 of S6 ribosomal protein (Biot-AKRRRLSSLRASTS) is carried out for 1 hour at 37° C. in […] under humidified air. The kinase reaction mixture of the final volume of 9 μL contains 2.57 ng of purified S6K1ΔCT/T412E protein, 50 mM MOPS (pH 7.0), 0.1 mM EGTA, 0.01 mM Na3VO4, 0.05% Tween-20, 0.01% BSA, 1 mM DTT, 10 mM MgCl2, 3 μM ATP, 0.5 μM biotinylated substrate peptide, 1% of DMSO or the text compounds of the formula (I) at the required concentration in 1% DMSO. For measurement of background, 20 mM of EDTA is added to the reaction mixture. […] Phosphorylated peptide indicative of kinase activity is quantitated by exciting the sample at 330 nm and comparing donor emission at 615 nm and acceptor emission at 665 nm by 2101 EnVision HTS multilabel plate reader (Perkin Elmer). […]

T1 sequence (Q9UM73 1116-1392 limits assumed): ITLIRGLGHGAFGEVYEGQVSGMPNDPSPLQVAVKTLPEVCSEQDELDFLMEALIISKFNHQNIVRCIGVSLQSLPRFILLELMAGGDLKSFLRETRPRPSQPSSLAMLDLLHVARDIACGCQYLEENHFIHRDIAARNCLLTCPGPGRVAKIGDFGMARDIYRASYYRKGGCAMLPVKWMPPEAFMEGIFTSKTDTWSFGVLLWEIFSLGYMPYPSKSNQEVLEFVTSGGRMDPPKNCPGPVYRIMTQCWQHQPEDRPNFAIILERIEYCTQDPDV

IC50 (ALK) [nM] | IC50 (S6K1) [nM] | IC50 Range Class, inhibition of ALK (ALK) | Compound
≤ 500 |  |  | NCCCc1ccc(-n2cnc3cnc4ccc(-c5ccc6[nH]ccc6c5)cc4c32)c(Cl)c1 [Example 48, 3-{3-Chloro-4-[8-(1H-indol-5-yl)-imidazo[4,5-c]quinolin-1-yl]-phenyl}-propylamine]
≤ 500 | ≤ 500 |  | NCCc1ccc(-n2cnc3cnc4ccc(-c5ccc6[nH]ccc6c5)cc4c32)c(Cl)c1 [Example 11, 2-{3-Chloro-4-[8-(1H-indol-5-yl)-imidazo[4,5-c]quinolin-1-yl]-phenyl}-ethylamine]
 | ≤ 500 | B/A | NCCc1ccc(-n2cnc3cnc4ccc(-c5ccc6[nH]ccc6c5)cc4c32)cc1F [Example 18, 2-{2-Fluoro-4-[8-(1H-indol-5-yl)-imidazo[4,5-c]quinolin-1-yl]-phenyl}-ethylamine]
